Assay results from PubChem BioAssay AID504889 (The Scripps Research Institute Molecular Screening Center, 2011).
The source made the active and inactive calls. The rule behind the calls is not given here.

Molecular target: MCHR1
Assay: MCHR1 antagonist potency, late-stage follow-up, selectivity assay for GPR7 antagonist project, cell-based, fluorescence, dose response, set 2 (AID 504889)
Settings: MCHR1-expressing cells, antagonist mode

Compound	IC50 (run 1)	IC50 (run 2)	IC50 (run 3) [µM]
COc1ccc(Oc2c(Br)cnn(-c3ccc(C)cc3)c2=O)cc1	inactive	inactive	–
COc1ccc(Oc2c(C=O)cnn(-c3ccc(C(C)C)cc3)c2=O)cc1	4.78 µM	5.15 µM	–
COc1ccc(Oc2c(Cl)cnn(-c3cccc(C)c3)c2=O)cc1	5.39 µM	6.79 µM	–
COc1ccc(Oc2c(C#N)cnn(-c3ccc(C(C)C)cc3)c2=O)cc1	7.47 µM	7.6 µM	–
COc1ccc(Oc2c(Cl)cnn(-c3ccc(C(C)(C)C)cc3)c2=O)cc1	2.7 µM	8.99 µM	–
COc1ccc(Oc2c(Cl)cnn(-c3cccc4ccccc34)c2=O)cc1	8.39 µM	4.46 µM	–
CCc1ccc(-n2ncc(Cl)c(Oc3ccc(OC)cc3)c2=O)cc1	3.92 µM	inactive	–
COc1ccc(Oc2c(Cl)cnn(-c3cc(C)cc(C)c3)c2=O)cc1	3.94 µM	5.04 µM	2.68
CCOc1ccc(Oc2c(Cl)cnn(-c3ccc(C)cc3)c2=O)cc1	inactive	8.62 µM	–
COC(=O)c1cnn(-c2ccc(C(C)C)cc2)c(=O)c1Oc1ccc(OC)cc1	6.89 µM	4.95 µM	–
COc1ccc(Oc2c(Cl)cnn(-c3cccc(C(C)C)c3)c2=O)cc1	1.72 µM	2.37 µM	–
CCc1ccc(Oc2c(Cl)cnn(-c3ccc(C)cc3)c2=O)cc1	5.02 µM	3.09 µM	–
COc1ccc(Oc2c(-c3ccco3)cnn(-c3ccc(C)cc3)c2=O)cc1	inactive	> 20 µM (inactive)	–
COc1ccc(Oc2c(Cl)cnn(-c3ccc(C(C)C)c(C)c3)c2=O)cc1	1.96 µM	1.71 µM	–

The next lines start with the values.

IC50 (run 1)	IC50 (run 2)	IC50 (run 3) [µM]	Compound
3.1 µM	4.3 µM	–	COc1ccc(Oc2c(Cl)cnn(-c3ccc(C(C)C)cc3)c2=O)cc1
inactive	> 20 µM (inactive)	–	COc1ccc(Oc2c(-c3ccccc3)cnn(-c3ccc(C)cc3)c2=O)cc1
> 20 µM (inactive)	> 20 µM (inactive)	–	Cc1ccc(-n2ncc(Cl)c(Oc3ccc(CO)cc3)c2=O)cc1
> 20 µM (inactive)	> 20 µM (inactive)	–	COc1ccc(Oc2c(-c3cccs3)cnn(-c3ccc(C)cc3)c2=O)cc1
2.9 µM	4.98 µM	–	Cc1ccc(-n2ncc(Cl)c(Oc3ccc(OC(F)(F)F)cc3)c2=O)cc1
2.17 µM	4.71 µM	–	CCC(C)c1ccc(-n2ncc(Cl)c(Oc3ccc(OC)cc3)c2=O)cc1 (centres undefined)
5.51 µM	8.4 µM	–	Cc1ccc(-n2ncc(Cl)c(Oc3ccc(C(F)(F)F)cc3)c2=O)cc1
9.81 µM	8.05 µM	–	COc1ccc(Oc2c(C)cnn(-c3ccc(C(C)C)cc3)c2=O)cc1
5.41 µM	inactive	–	COc1ccc(Oc2c(C3CC3)cnn(-c3ccc(C)cc3)c2=O)cc1
inactive	inactive	–	COc1ccc(Oc2c(Cl)cnn(-c3ccc(C)cc3)c2=O)cc1
